Source: ChEMBL document CHEMBL1201862, “PubChem BioAssay data set” (2004)
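1) Cells in 96-well plates. 2) Compound, 48 h, 5 concentrations. 3) Linear interpolation between surrounding doses. 4) Unreached endpoint = highest concentration. At the GI50, growth is halved.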 Activity calls are given as the source filed them. Cut-off read from the data, not from the text of the source: active = GI50 up to about 1.1 µM and inactive = higher.

What was measured:
Assay in all cases: DTP human tumour cell line panel, 48 h
786-0 = test system: 786-0
CAKI-1 = test system: CAKI-1
CCRF-CEM = test system: CCRF-CEM
DLD-1 = test system: DLD-1
KM12 = test system: KM12
LOX IMVI = test system: LOX IMVI
LXFL 529 = test system: LXFL 529
M19-MEL = test system: M19-MEL
NCI-H23 = test system: NCI-H23
OVCAR-8 = test system: OVCAR-8
SF-268 = test system: SF-268
SK-MEL-5 = test system: SK-MEL-5
SN12C = test system: SN12C
UACC-62 = test system: UACC-62
HCT-15 = test system: HCT-15

| SMILES | GI50 (786-0) | GI50 (CAKI-1) | GI50 (CCRF-CEM) | GI50 (DLD-1) | GI50 (KM12) | GI50 (LOX IMVI) | GI50 (LXFL 529) | GI50 (M19-MEL) | GI50 (NCI-H23) | GI50 (OVCAR-8) | GI50 (SF-268) | GI50 (SK-MEL-5) | GI50 (SN12C) | GI50 (UACC-62) | GI50 (HCT-15) |
| --- | --- | --- | --- | --- | --- | --- | --- | --- | --- | --- | --- | --- | --- | --- | --- |
| [C-]#[N+]C(C)(C)C[C@H]1CC(C)C2CCC(C)C3([N+]#[C-])CCC(=C)C1[C@H]23 (stereo partly specified) | 2.34 µM (inactive) | 3.19 µM (inactive) | 2.37 µM (inactive) | 0.269 µM (active) | 0.308 µM (active) | 0.147 µM (active) | 1.82 µM (inactive) | 1.5 µM (inactive) | 0.509 µM (active) | 0.227 µM (active) | 0.308 µM (active) | 2.67 µM (inactive) | 0.195 µM (active) | 2.82 µM (inactive) |  |
| Cc1c2ccccc2c(C)c2c3c(ccc12)C(=O)C=CC3=O | 25.7 µM (inactive) | 22.1 µM (inactive) | 2.49 µM (inactive) | 18.5 µM (inactive) | 27.3 µM (inactive) | 25.8 µM (inactive) | 17.3 µM (inactive) | 17.1 µM (inactive) | 32.3 µM (inactive) | 14.9 µM (inactive) | 18.4 µM (inactive) | 37.7 µM (inactive) | 27.8 µM (inactive) | 35.8 µM (inactive) | 19.1 µM |
| NNC(=O)N/N=C1\C(=O)N(c2nccs2)C(=O)C(=O)C1c1nc2ccccc2s1 (stereo unspecified) | > 100 µM (inactive) | > 100 µM (inactive) |  | > 100 µM (inactive) | > 100 µM (inactive) | > 100 µM (inactive) | > 100 µM (inactive) | > 100 µM (inactive) | > 100 µM (inactive) | > 100 µM (inactive) | > 100 µM (inactive) |  | > 100 µM (inactive) | > 100 µM (inactive) | > 100 µM |
| Cn1c(=O)nc2n(-c3cc(Cl)ccc3Cl)c3ccccc3nc-2c1=O | 8.45 µM (inactive) | 7.19 µM (inactive) | 4.02 µM (inactive) | 1.53 µM (inactive) | 5.58 µM (inactive) |  | 13.8 µM (inactive) | 1.35 µM (inactive) | 0.299 µM (active) | 3.34 µM (inactive) | 11.9 µM (inactive) | 1.95 µM (inactive) | 4.48 µM (inactive) | 1.61 µM (inactive) | 3.8 µM |
| Cc1ccc2c(CC(=O)O)cc(=O)oc2c1 | > 100 µM (inactive) | > 100 µM (inactive) | > 100 µM (inactive) | > 100 µM (inactive) | > 100 µM (inactive) | > 100 µM (inactive) | > 100 µM (inactive) | > 100 µM (inactive) | > 100 µM (inactive) | > 100 µM (inactive) | > 100 µM (inactive) | > 100 µM (inactive) | > 100 µM (inactive) | > 100 µM (inactive) | > 100 µM |
| CC1CCC[P+](Cc2ccccc2)(c2ccccc2)CC1 (stereo unspecified) | > 100 µM (inactive) |  | 42.3 µM (inactive) | > 100 µM (inactive) |  | 32 µM (inactive) | 15.8 µM (inactive) | 27.6 µM (inactive) | 27.2 µM (inactive) | 59.8 µM (inactive) | 89.1 µM (inactive) | 14.5 µM (inactive) | > 100 µM (inactive) | 25 µM (inactive) | > 100 µM |
| COc1cc2c(c(OC)c1OC)-c1ccc(SC)c(=O)cc1C(CC(=O)Oc1cccc([N+](=O)[O-])c1)C2 (stereo unspecified) | 0.473 µM (active) | 0.685 µM (active) | 0.745 µM (active) | 0.933 µM (active) | 0.424 µM (active) | 0.867 µM (active) | 0.619 µM (active) | 0.458 µM (active) | 0.78 µM (active) | 0.767 µM (active) | 1.02 µM (active) | 0.592 µM (active) | 1.11 µM (active) | 0.356 µM (active) | 0.4 µM |
| Cc1ccc(C)c(NC2=NC(=O)C(CC(=O)Nc3ccc(Cl)cc3Cl)S2)c1 (stereo unspecified) | 51.8 µM (inactive) | > 100 µM (inactive) | 41.4 µM (inactive) | > 100 µM (inactive) | 52.6 µM (inactive) | > 100 µM (inactive) | 58.7 µM (inactive) | 59.4 µM (inactive) | 43.8 µM (inactive) | 66.1 µM (inactive) | 37.8 µM (inactive) | > 100 µM (inactive) | > 100 µM (inactive) | 28.9 µM (inactive) | > 100 µM |
| O=C(O/C(=C(/N=N/c1ccccc1)c1ccccc1)c1ccccc1)c1ccccc1 | > 100 µM (inactive) | > 100 µM (inactive) |  | 89.1 µM (inactive) | > 100 µM (inactive) |  | > 100 µM (inactive) |  | > 100 µM (inactive) | > 100 µM (inactive) |  | > 100 µM (inactive) | > 100 µM (inactive) | > 100 µM (inactive) | > 100 µM |
| CN1CCC(O)C(CNC23CC4CC(CC(C4)C2)C3)C1 (stereo unspecified) | > 100 µM (inactive) | > 100 µM (inactive) | > 100 µM (inactive) | > 100 µM (inactive) | > 100 µM (inactive) | > 100 µM (inactive) | > 100 µM (inactive) | > 100 µM (inactive) | > 100 µM (inactive) | > 100 µM (inactive) | > 100 µM (inactive) | > 100 µM (inactive) | > 100 µM (inactive) | > 100 µM (inactive) |  |
| CCOC(=O)c1nc2ccc(Cl)cc2c2c1Cc1ccccc1-2 | > 100 µM (inactive) | > 100 µM (inactive) |  | > 100 µM (inactive) | > 100 µM (inactive) | > 100 µM (inactive) | > 100 µM (inactive) | > 100 µM (inactive) | > 100 µM (inactive) | > 100 µM (inactive) | > 100 µM (inactive) | > 100 µM (inactive) | > 100 µM (inactive) | > 100 µM (inactive) | > 100 µM |
| CCC1C2C=CC(CC2)N1S(=O)(=O)c1ccc(C)cc1 (stereo unspecified) | 31.9 µM (inactive) | 20.8 µM (inactive) | 22.4 µM (inactive) |  | 24.4 µM (inactive) | 15.8 µM (inactive) | 17.3 µM (inactive) | 31.4 µM (inactive) |  | > 10 µM (inactive) | 20.8 µM (inactive) | 18.4 µM (inactive) | 16.4 µM (inactive) | 11.2 µM (inactive) | 22.8 µM |
| Cc1ccc(/C=C/C(=O)C(C)(C)CN2CCCCC2)cc1 | 6 µM (inactive) | 3.78 µM (inactive) | 3.11 µM (inactive) |  | 3.28 µM (inactive) | 9.55 µM (inactive) | 6.62 µM (inactive) | 11.8 µM (inactive) | 11.5 µM (inactive) | 2.81 µM (inactive) | 15.7 µM (inactive) | 2.86 µM (inactive) | 3.9 µM (inactive) | 11.1 µM (inactive) | 3.76 µM |
| CC(/C=C/c1ccccc1)=N\N=C(C)\C=C\c1ccccc1 | > 100 µM (inactive) |  | > 100 µM (inactive) | > 100 µM (inactive) | > 100 µM (inactive) | > 100 µM (inactive) | > 100 µM (inactive) | > 100 µM (inactive) | > 100 µM (inactive) | > 100 µM (inactive) | > 100 µM (inactive) | > 100 µM (inactive) | > 100 µM (inactive) |  | > 100 µM |
| CN(C)CCNC(=O)c1ccc2ccc3cccnc3c2n1 | 11.1 µM (inactive) | 13.1 µM (inactive) | 18.9 µM (inactive) | 6.55 µM (inactive) | 18.2 µM (inactive) | 9.51 µM (inactive) | 11.8 µM (inactive) |  | 17.1 µM (inactive) | 8.17 µM (inactive) | 16.2 µM (inactive) | 13.9 µM (inactive) | 13.8 µM (inactive) | 16.6 µM (inactive) | 11.8 µM |
| Cc1c(Cl)cccc1NC(=O)C(=O)C(C(=O)c1ccccc1-c1ccccc1)C1OC(=O)c2ccccc21 (stereo unspecified) | 16.6 µM (inactive) |  | 19.8 µM (inactive) | 22.8 µM (inactive) | 18.5 µM (inactive) | 18.3 µM (inactive) | 14 µM (inactive) | 15.1 µM (inactive) | 14.5 µM (inactive) | 25.5 µM (inactive) | 19.7 µM (inactive) | 15.7 µM (inactive) |  | 17.9 µM (inactive) |  |
| Oc1ccc(I)c2cccnc12 | 4.88 µM (inactive) |  | 2.42 µM (inactive) | 3.99 µM (inactive) | 14.8 µM (inactive) | 8.26 µM (inactive) | 4.11 µM (inactive) | 14.4 µM (inactive) | 8.38 µM (inactive) | 3.66 µM (inactive) | 7.45 µM (inactive) |  | 13.4 µM (inactive) |  | 4.19 µM |
| O=C(N/C(=C\c1cc(Cl)ccc1Cl)c1nc2ccccc2[nH]1)c1ccccc1 | 18 µM (inactive) | 30.8 µM (inactive) | 25.9 µM (inactive) | 17.1 µM (inactive) | 27.4 µM (inactive) |  | 24.5 µM (inactive) | 30.5 µM (inactive) | 23.8 µM (inactive) | 19.2 µM (inactive) | 36.1 µM (inactive) | 21.7 µM (inactive) | 32.1 µM (inactive) | 38.9 µM (inactive) | 24 µM |
| COc1cc(OC)c(OC)cc1/C=N/NC(=O)N/N=C/c1cc(OC)c(OC)cc1OC | > 100 µM (inactive) |  | > 100 µM (inactive) |  | > 100 µM (inactive) | > 100 µM (inactive) | > 100 µM (inactive) | > 100 µM (inactive) | > 100 µM (inactive) | 91 µM (inactive) | > 100 µM (inactive) | > 100 µM (inactive) | > 100 µM (inactive) | > 100 µM (inactive) | > 100 µM |
| CCN(CC)c1ccc2c(c1)Oc1ccc(N(CC)CC)cc1C21Oc2ccccc2-c2c1c1ccccc1n2CC (stereo unspecified) | 4.05 µM (inactive) | 5.15 µM (inactive) | 1.44 µM (inactive) | 3.48 µM (inactive) |  | 3.24 µM (inactive) | 3.36 µM (inactive) |  | 2.07 µM (inactive) | 6.18 µM (inactive) | 2.38 µM (inactive) | 1.56 µM (inactive) | 3.68 µM (inactive) | 1.85 µM (inactive) | 3.82 µM |
